Data taken from EP0418113A2, “Microbiological assay kit and method for detecting antibacterial compounds” (ORGENICS LIMITED, priority 1989, dated 1991).
Several values for one entry are separate records, joined by “and”; a condition that tells them apart may be missing. Equal entries are not always repeated.

Assays:
[1] = system: Strep. thermophilus cells; assay: Visual antibiotic assay in milk with lyophilized bacteria subjected to osmotic changes (MTT colour); assay type: cell-based, Streptococcus thermophilus (ATCC 14485)
Protocol: Keep cold until use. • (b) To each 1 mL milk specimen or controls add 0.053 gr glucose and 0.1 mL of rehydrated bacterial suspension obtained in (a) above. Mix and incubate at 42°C for 25 min. • (c) Add 2 mL of a chromogenic mixture, containing 0.5 % glucose and 0.175 mg/mL MTT in water to each of the specimens and controls. Mix and incubate for 5 min at 42°C. • (d) Visually examine the color of each specimen and compare it to the color of the control. A color density lower than the color of the control indicates antibiotic activity in the specimen. Table 5 below summarizes the sensitivity of the visual assay for various antibiotic drugs, added to antibiotic free milk specimens.

[2] = system: Strep. thermophilus cells; assay: Detection of Penicillin G in milk by inhibition of MTT reduction in Strep. thermophilus cells, butanol extraction, OD 570 nm; assay type: cell-based, Streptococcus thermophilus (ATCC 14485)
Protocol: • (a) Streak Streptococcus thermophilus (ATCC 14485) suspension on solid medium, comprising 10 % Difco skim milk, 0,5 % Difco yeast extract, 2 % Agar in distilled water. Distinct colonies should emerge after overnight incubation at 42°C. • (b) Suspended a colony in 10 mL of a liquid medium, comprising 10 % Difco skim milk and 0.5 % Difco yeast extract in water (medium A). Incubate the suspension overnight at 42°C in 12 mL plastic, disposable centrifuge test tubes. • (c) Dilute the resultant suspension 1:10 into medium A and incubate at 42°C until the pH of the medium drops to 5.0 (about 2hrs). The resulting viable cell concentration is 1-2x10⁸/1mL. • (d) Cell concentration can be increased by adding 1N NaOH solution until the pH is raised to 6.2, and continuing incubation at 42°C until the pH drops again to 5.0. This cycle can be repeated 5-7 times until the culture becomes stationary at 1-2x10⁹ cells/mL. • (e) Adjust cell concentration to 1 x 10⁸ cells mL and store at 6-10°C for up to 24 hrs for use in antibiotic assay. Alternatively, distribute 2 mL aliquots of the suspension into 12 mL Penicillin vials (24 x 45 mm), freeze in liquid nitrogen and dry on refrigerated shelves of a stoppering, programmable lyophilizer, employing a 48-72 hour program.
• (a) Add 2 mL of distilled water to each vial of dried Strep. thermophilus cells, prepared as described in Example 1. Freshly grown Strep. thermophilus at 1x10⁸ cells/mL are used without any treatment. • (b) Construct reaction mixtures for the detection of antibiotic activity in milk specimens from 0.4 mL cell suspension (fresh or rehydrated lyophilized), 1.6 mL milk specimen, 0.05 mL 10 % Difco Yeast Extract and 0.05 mL 10 % Difco Tryptose. Include at least one control milk specimen, known not to contain any antibiotic drug, whenever the Antibiotic assay is employed. • (c) Incube the complete antibiotic exposure mixtures of the control and unknown milk specimens for 25 minutes at 42°C. • (d) Upon completion of the incubation mix 0.4 mL aliquots of all reaction mixtures with 1.6 mL of 0.5 % glucose, 0.175 mg/mL MTT (3-[4,5-Dimethylthiazol-2-yl]-2.5 diphenyltetrazolium bromide) in water, and incubate for 5 minutes. The amount of color resulting from MTT reduction can be estimated by one of the methods detailed in Example 3.
Transfer a 0.75 mL aliquot of the reaction mixture to a 2 mL microcentrifuge test tube. Add 0.75 mL 1-Butanol. Agitate on a vortex mixer for 15 seconds. Centrifuge the suspension at 10,000 x g for 2.5 minutes. Transfer 0.6 mL the upper clear, colored phase to a clean microcentrifuge test tube, containing 0.6 mL 1-Butanol. Agitate on a vortex mixer for 15 seconds. Centrifuge the suspension at 10,000 x g for 2.5 minutes. Transfer 1 mL the upper clear, colored phase to a clean cuvette. Determine the color density at 570 nm.
Milk specimens containing 3.5 or 7 mIU/mL of Penicillin G were tested with lyophilized Strep. thermophilus organisms, as described in Example 2. Color development for each antibiotic concentration was carried out either with the MTT solution as described in section (d) of Example 2, which is hypotonic or with the same solution, made isotonic by the addition of sucrose to 0.3M final concentration.
The amount of MTT color produced was determined by measuring the optical density of butanol extract made from the reaction mixtures (example 3 (d)).
Milk specimens containing 1-14 mIU:mL Penicillin G, were tested as described in Example 2 for lyophilized bacteria.
Milk specimens, containing 7 mIU/mL of Penicillin G were tested as described in Example 2 for lyophilized Strep. thermophilus cultivated to high density by pH adjustments. Incubation times of the milk specimens with the indicator bacteria varied between 10 and 25 minutes. Incubation with the MTT solution varied between 5 and 10 minutes. The amount of MTT color produced was determined by measuring the optical density of butanol extract made from the reaction mixtures (example 3 (d)). […]

[3] = system: B. stearothermophilus ATCC 10149; assay: Detection of Penicillin G in milk with B. stearothermophilus cells (MTT reduction); assay type: cell-based, Bacillus stearothermophilus; conditions: 30 min at 55°C + 10 min MTT
Protocol: The whole reaction mixture is filtered through glass filter paper circles (e.g. Whatman GF/F, 2.5 cm diameter). The color can be estimated visually or measured by a reflecting densitometer, such as Gretag D182 (Gretag Ltd., CH-8105 Regensdorf, Switzerland). • (a) Inoculate B. stearothermophilus ATCC 10149 into a liquid medium constructed from 10 % Difco skim milk and 0.5 % Difco yeast extract in water. Incubate at 55°C with constant (shaking) for 18 hrs. • (b) Dilute the overnight culture 1:20 into fresh liquid medium and continue shaking at 55°C for 2 hrs. • (c) Dilute 1:10 into liquid medium fortified with 0.8M sucrose and continue shaking at 55°C for 2.5 hrs. […] Use immediately or keep on ice until ready to continue. • (d) Mix each Penicillin containing milk specimen with an equal volume of B. stearothermophilus suspension, as obtained in Step (c). Shake for 30 minutes at 55°C. • (e) Add MTT solution, as described in Example 2 (d) and continue shaking for 10 minutes at 55°C. • (f) Determine the amount of MTT dye as described in Example 3(b).

[4] = system: B. stearothermophilus (ATCC 10149) cells; assay: Inhibition of MTT colour formation in B. stearothermophilus after pre-incubation in isotonic or hypertonic medium (Tryptic Soy broth); assay type: cell-based, Bacillus stearothermophilus; conditions: specimen containing 40 mIU/mL Penicillin G
Protocol: Logarithmic B. stearothermophilus (ATCC 10149) cells were suspended in Difco Tryptic Soy broth with or without 0.8M sucrose, and incubated at 55°C with shaking for 1 hr. […] Control reaction mixture was constructed with bacterial suspension and Tryptic Soy broth. Following a 30 min incubation at 55°C, all reaction mixtures were diluted 1:5 into […] MTT, 0.5 glucose in water and incubation continued for 5 minutes. The color suspension was clarified by vigorously mixing 0.5 mL aliquots with 0.7 mL isoamyl alcohol containing 0.04N hydrochloric acid. The optical density of the clarified mixtures was measured at 570 nm and the inhibition of color formation, relative to the control was calculated and is presented in Table 7.

[5] = system: Strep. thermophilus cells; assay: Detection of Penicillin G in milk by inhibition of MTT reduction in Strep. thermophilus cells, butanol extraction, OD 570 nm; assay type: cell-based, Streptococcus thermophilus (ATCC 14485); conditions: isotonic MTT solution (0.3M sucrose); Penicillin concentration 4; lyophilized cells
[6] = added to antibiotic free milk, 25 min at 42°C + 5 min MTT
[7] = Penicillin Concentration 1 mIU/mL, lyophilized cells
[8] = Penicillin Concentration 2 mIU/mL, lyophilized cells
[9] = Penicillin Concentration 4 mIU/mL, lyophilized cells
[10] = Penicillin Concentration 7 mIU/mL, lyophilized cells
[11] = Penicillin Concentration 14 mIU/mL, lyophilized cells
[12] = dried (lyophilized) cells, 7 mIU/mL Penicillin G in milk
[13] = hypotonic MTT solution, Penicillin concentration 4, lyophilized cells
[14] = hypotonic MTT solution, Penicillin concentration 7, lyophilized cells
[15] = isotonic MTT solution (0.3M sucrose), Penicillin concentration 7, lyophilized cells
[16] = Penicillin G Concentration 16 mIU/mL in milk
[17] = Penicillin G Concentration 32 mIU/mL in milk

Cc1onc(-c2ccccc2Cl)c1C(=O)N[C@@H]1C(=O)N2[C@@H]1SC(C)(C)[C@@H]2C(=O)O [Cloxacillin]
Sensitivity (lowest concentration causing visually detectable decrease in color) [1, 6]: 0.002 µg/mL

CN(C)[C@@H]1C(O)=C(C(N)=O)C(=O)[C@@]2(O)C(O)=C3C(=O)c4c(O)cccc4[C@@](C)(O)[C@H]3C[C@@H]12 [Tetracycline]
Sensitivity (lowest concentration causing visually detectable decrease in color) [1, 6]: 0.2 µg/mL

Nc1ccc(S(=O)(=O)Nc2ncccn2)cc1 [Sulfadiazine]
Sensitivity (lowest concentration causing visually detectable decrease in color) ([1]; test conducted in presence of 10 ug.mL trimethoprim, added to the milk specimen): 20 ug/mL^b

Polymyxin
Sensitivity (lowest concentration causing visually detectable decrease in color) [1, 6]: 10 µg/mL

CC1(C)S[C@@H]2[C@H](NC(=O)[C@H](N)c3ccccc3)C(=O)N2[C@H]1C(=O)O [Ampicillin]
Sensitivity (lowest concentration causing visually detectable decrease in color) [1, 6]: 0.002 µg/mL

CC1(C)S[C@@H]2[C@H](NC(=O)Cc3ccccc3)C(=O)N2[C@H]1C(=O)O [Penicillin G]
Inhibition (%) ([2]; 7 mIU/mL Penicillin G, first incubation 10 min, MTT 5 min (total 15 min), lyophilized high-density cells): 7%
Inhibition (%) ([2]; 7 mIU/mL Penicillin G, first incubation 10 min, MTT 10 min (total 20 min), lyophilized high-density cells): 40% and 42%
Inhibition (%) ([2]; 7 mIU/mL Penicillin G, first incubation 15 min, MTT 5 min (total 20 min), lyophilized high-density cells): 21%
Inhibition (%) ([2]; 7 mIU/mL Penicillin G, first incubation 15 min, MTT 10 min (total 25 min), lyophilized high-density cells): 42%
Inhibition (%) ([2]; 7 mIU/mL Penicillin G, first incubation 20 min, MTT 5 min (total 25 min), lyophilized high-density cells): 77%
Inhibition (%) ([2]; 7 mIU/mL Penicillin G, first incubation 20 min, MTT 10 min (total 30 min), lyophilized high-density cells): 53%
Inhibition (%) ([2]; 7 mIU/mL Penicillin G, first incubation 25 min, MTT 5 min (total 30 min), lyophilized high-density cells): 62%
Inhibition (%) ([2]; 7 mIU/mL Penicillin G, first incubation 25 min, MTT 10 min (total 35 min), lyophilized high-density cells): 57%
Inhibition (%) [2, 7]: 17%
OD at 570 nm [2, 7]: 0.098
Inhibition (%) [2, 8]: 32%
OD at 570 nm [2, 8]: 0.080
Inhibition (%) [2, 9]: 56%
OD at 570 nm [2, 9]: 0.052
Inhibition (%) [2, 10]: 74%
OD at 570 nm [2, 10]: 0.031
Inhibition (%) [2, 11]: 80%
OD at 570 nm [2, 11]: 0.024
% inhibition [2, 12]: 60%
OD 570 nm in 7 mIU/mL Penicillin Specimen [2, 12]: 0.062
% inhibition ([2]; fresh cells, 7 mIU/mL Penicillin G in milk): 55%
OD 570 nm in 7 mIU/mL Penicillin Specimen ([2]; fresh cells, 7 mIU/mL Penicillin G in milk, 25 min at 42°C + 5 min MTT): 0.088
% inhibition [2, 13]: 56%
OD at 570 nm [2, 13]: 0.052
% inhibition [2, 14]: 74%
OD at 570 nm [2, 14]: 0.031
OD at 570 nm ([2]; isotonic MTT solution (0.3M sucrose), Penicillin concentration 4, lyophilized cells): 0.113
% inhibition [2, 15]: 34%
OD at 570 nm [2, 15]: 0.077
concentration detectable in milk ([2]; lyophilized cells, butanol extraction, OD 570 nm): 1 mIU/mL
Sensitivity (lowest concentration causing visually detectable decrease in color) [1, 6]: 3.5 mIU/mL
% inhibition [3, 16]: 34%
OD at 570 nm [3, 16]: 0.250
% inhibition [3, 17]: 59%
OD at 570 nm [3, 17]: 0.155
% Inhibition with ([4]; hypertonic pre-incubation medium (0.8M sucrose)): 54%
% Inhibition with ([4]; isotonic pre-incubation medium (without sucrose)): 10%
% inhibition [5]: 3%

CN(C)[C@@H]1C(O)=C(C(N)=O)C(=O)[C@@]2(O)C(O)=C3C(=O)c4c(O)cccc4[C@@](C)(O)[C@H]3[C@H](O)[C@@H]12 [Oxytetracycline]
Sensitivity (lowest concentration causing visually detectable decrease in color) [1, 6]: 0.4 µg/mL

O=C(N[C@H](CO)[C@H](O)c1ccc([N+](=O)[O-])cc1)C(Cl)Cl [Chloramphenicol]
Sensitivity (lowest concentration causing visually detectable decrease in color) [1, 6]: 2.5 µg/mL
